From article PMC10904834 (Nature Communications, 2024)

Tests used:
MoATG4 [1] = biological target: T1, MoATG4 (Pyricularia oryzae, UniProt Q523C3); test: biochemical
T1 construct: gene ATG4

BcATG4 [2] = biological target: T2, BcATG4 (Botrytis cinerea, UniProt A6SDQ3)
T2 construct: gene atg4

BcATG4 [3] = biological target: T2, BcATG4; test: isothermal titration calorimetry
MoATG4 [4] = biological target: T1, MoATG4; details: 10 uM compound; RT, 10 min preincubation; thiol-reactive, proposed covalent

T1 sequence (Q523C3 whole entry, looked up): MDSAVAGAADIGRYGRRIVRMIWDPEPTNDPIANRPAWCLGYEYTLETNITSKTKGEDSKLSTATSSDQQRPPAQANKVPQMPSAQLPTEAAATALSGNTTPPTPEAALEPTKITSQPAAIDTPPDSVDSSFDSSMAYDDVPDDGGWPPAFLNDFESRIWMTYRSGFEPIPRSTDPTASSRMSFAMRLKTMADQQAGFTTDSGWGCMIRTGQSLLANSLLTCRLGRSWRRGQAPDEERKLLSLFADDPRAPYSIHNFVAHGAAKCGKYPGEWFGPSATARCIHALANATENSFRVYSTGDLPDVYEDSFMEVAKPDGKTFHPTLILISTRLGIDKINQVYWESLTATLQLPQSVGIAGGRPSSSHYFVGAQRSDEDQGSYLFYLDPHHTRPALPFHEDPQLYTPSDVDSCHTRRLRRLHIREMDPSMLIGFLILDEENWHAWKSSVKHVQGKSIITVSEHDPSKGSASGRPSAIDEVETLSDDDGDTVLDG
T2 sequence (A6SDQ3 whole entry): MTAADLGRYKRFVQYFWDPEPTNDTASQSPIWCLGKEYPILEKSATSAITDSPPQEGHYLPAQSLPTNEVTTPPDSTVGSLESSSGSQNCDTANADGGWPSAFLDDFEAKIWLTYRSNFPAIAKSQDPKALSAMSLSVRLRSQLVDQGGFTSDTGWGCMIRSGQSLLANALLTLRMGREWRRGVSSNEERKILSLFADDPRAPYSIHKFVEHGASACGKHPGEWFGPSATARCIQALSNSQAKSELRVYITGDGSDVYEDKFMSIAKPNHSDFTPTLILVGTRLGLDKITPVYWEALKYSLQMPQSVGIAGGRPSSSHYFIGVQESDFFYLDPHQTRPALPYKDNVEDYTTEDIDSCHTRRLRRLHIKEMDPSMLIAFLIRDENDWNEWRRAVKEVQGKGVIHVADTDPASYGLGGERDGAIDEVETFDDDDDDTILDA

SMILES	Kd (MoATG4 [1]) [nM]	IC50 (BcATG4 [2]) [nM]	Kd (BcATG4 [3]) [nM]	in vitro cleavage of Citrine-MoATG8-ShR sensor, western blot (MoATG4 [4])
O=c1c2ccccc2[se]n1-c1ccccc1 [EB, ebselen]	1	620 ± 30	3.4	strong inhibition of the MoATG4-mediated cleavage of MoATG8 by EB and its analogs
O=C1c2ccccc2[Se](=O)N1c1ccccc1 (centres unmarked) [EO, ebselen oxide]		500 ± 30		strong inhibition of the MoATG4-mediated cleavage of MoATG8 by EB and its analogs
Cc1ccc(-n2sc3ccccc3c2=O)cc1 [PT, 2-(4-methylphenyl)−1,2-benzisothiazol-3(2H)-one]		1790 ± 240		strong inhibition of the MoATG4-mediated cleavage of MoATG8 by EB and its analogs
